Data reported in patent US6425888B1, “Ocular treatment device” (R. P. Scherer Corporation, priority 1994, dated 2002).
Where a name gives a salt, the structure may show the parent alone.

Tested on: rabbits
Test: Miotic response (pupil diameter) of rabbits after a single spray from the blister crushing device of FIG. 18
Format: in vivo, rabbit
Conditions: left eye, mean of 5 rabbits
Excerpt: The device of FIG. 18 was used in a study of the ocular response of rabbits to treatment according to the invention. The rabbits selected for the study were allowed to acclimatise for 4-5 days prior to treatment. They were subjected to manual restraining for 2 days prior to the study to condition them to the procedures involved in dosing. A device of the kind illustrated in FIG. 18 was then used to administer a single spray of isotonic 2% Pilocarpine hydrochloride (Pilocarpine HCl) solution to the corneal surface of the left eve of each of 5 rabbits, the right eyes remaining undosed. The following settings were used: 100 μm nozzle diameter 2.5 cm distance between nozzle tip and animal eye Sprays targeted towards the centre of the cornea of the animal eye The miotic response (reduction in pupil diameter) at various intervals following the application of the pilocarpine HCl solution was monitored under constant illumination using video photography. The pupil diameter of the left eye was expressed in proportion to the diameter of a fixed reference aperture situated at an equal distance from the video camera. The actual diameter was then calculated from the known diameter of the reference aperture.

## CC[C@@H]1C(=O)OC[C@@H]1Cc1cncn1C [Pilocarpine HCl, Pilocarpine hydrochloride]
+15 min after dose
  Pupil Diameter: 6.7 mm
+30 min after dose
  Pupil Diameter: 6.8 mm
+45 min after dose
  Pupil Diameter: 6.9 mm
+1 hr after dose
  Pupil Diameter: 6.8 mm
+1.5 hr after dose
  Pupil Diameter: 6.9 mm
+2 hr after dose
  Pupil Diameter: 7.3 mm
+2.5 hr after dose
  Pupil Diameter: 7.8 mm
+3 hr after dose
  Pupil Diameter: 7.9 mm
+3.5 hr after dose
  Pupil Diameter: 8.0 mm
+4 hr after dose
  Pupil Diameter: 7.8 mm
Dose (0 min), single spray of isotonic 2% solution to cornea
  Pupil Diameter: 7.8 mm
